Laboratory results from patent publication US20240383869A1, “ARYLACETYL INHIBITORS OF TG2 AND USES THEREOF” (UNIVERSITY OF OTTAWA, priority 2021, published 2024).
Where two headings read alike, the source gives them in different places.

Target: T1, hTG2 (Homo sapiens, UniProt P21980)
T1 sequence (P21980 1-687): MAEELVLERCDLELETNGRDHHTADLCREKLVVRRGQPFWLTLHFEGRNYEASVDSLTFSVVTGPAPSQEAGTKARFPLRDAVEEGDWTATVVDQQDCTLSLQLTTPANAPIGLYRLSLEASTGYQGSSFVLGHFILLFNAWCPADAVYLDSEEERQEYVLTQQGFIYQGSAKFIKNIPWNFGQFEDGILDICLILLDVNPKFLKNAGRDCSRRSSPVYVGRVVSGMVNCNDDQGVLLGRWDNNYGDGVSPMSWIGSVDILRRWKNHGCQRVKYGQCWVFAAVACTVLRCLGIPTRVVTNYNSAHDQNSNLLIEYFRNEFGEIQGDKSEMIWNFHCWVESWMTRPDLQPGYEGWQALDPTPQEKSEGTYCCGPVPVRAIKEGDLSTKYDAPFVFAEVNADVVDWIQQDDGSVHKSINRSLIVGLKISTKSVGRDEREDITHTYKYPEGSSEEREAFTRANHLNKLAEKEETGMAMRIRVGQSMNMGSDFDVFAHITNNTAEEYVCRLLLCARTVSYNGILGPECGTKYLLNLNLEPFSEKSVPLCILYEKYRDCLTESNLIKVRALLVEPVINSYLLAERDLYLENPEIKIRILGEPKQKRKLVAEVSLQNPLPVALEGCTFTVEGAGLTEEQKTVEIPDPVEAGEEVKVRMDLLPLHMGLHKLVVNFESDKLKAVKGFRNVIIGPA
Experiment: biochemical
Settings: for Ki: read-out: KI (converted); for kinact: read-out: kinact (converted); for kinact/KI: read-out: kinact/KI (converted)
Method: The ability of the compounds to inhibit TG2 transamidase activity and the kinetics of TG2 inhibition were investigated using a colorimetric activity assay, as follows:
Colorimetric transamidase activity assay. The activities of hTG1, hTG2 and hTG6 were measured via a colorimetric assay using the chromogenic substrate Cbz-Glu(γ-p-nitrophenyl ester)Gly (AL5), as described (Leblanc, A. et al., “Kinetic studies of guinea pig liver transglutaminase reveal a general-base-catalyzed deacylation mechanism.” Biochemistry 2001, 40 (28), 8335-8342). Assays were conducted at 25° C. in 50 mM MOPS buffer (pH 6.95) containing 7.5 mM CaCl2. […] The substrate AL5 was prepared in as a stock solution in DMSO such that the final concentration of this co-solvent was constant at 2.5% v/v. Stock solutions of the inhibitors were made in water ranging in concentration from 100-500 μM. The reaction was initiated with the addition of enzyme, 0.10 μM hTG1, 0.25 μM hTG2 (4.6 mU/mL) or 0.32 μM hTG6. Formation of hydrolysis product, p-nitrophenolate (pNP), was monitored at 405 nm in a polystyrene 96-well microplate using a BioTek Synergy 4 plate reader. The observed first-order rate constants of inactivation (kobs) were determined via non-linear regression fit to a mono-exponential model (Eqn 1) of absorbance versus time curves. These rate constants (kobs) were in turn fit to a saturation kinetics model (Eqn 2), by non-linear regression, providing the kinetic parameters kinact and KI, as previously described by Stone and Hofsteenge (Stone, S. R. and Hofsteenge, J., “Specificity of activated human protein C.” Biochem. J. 1985, 230 (2), 497-502). […] Experiments were completed in triplicate at minimum.
Fitting of this time-dependent inactivation to a monoexponential equation gave first-order rate constants, kobs. […] In some cases, the kinetic data were fitted to a linear double reciprocal equation.

[1] = values determined using a double-reciprocal analysis
[2] = fit to saturation kinetics model, 25° C., pH 6.95, 100 μM AL5

SMILES	Ki [1]	kinact [1]	kinact/KI [1]	Ki [2]	kinact [2]	kinact/KI [2]
C=CC(=O)NCCCC[C@H](NC(=O)c1ccccn1)C(=O)N1CCN(C(=O)c2cccc3ccccc23)CC1 [Inhibitor 18, (S)-N-(1-(4-(1-Naphthoyl)piperazin-1-yl)-6-acrylamido-1-oxohexan-2-yl)picolinamide]	41.4 ± 3.8 µM	0.0065 s⁻¹	160 M⁻¹ s⁻¹	–	–	–
C=CC(=O)NCCCC[C@H](NC(=O)c1cccnc1)C(=O)N1CCN(C(=O)c2cccc3ccccc23)CC1 [Inhibitor 19, (S)-N-(1-(4-(1-naphthoyl)piperazin-1-yl)-6-acrylamido-1-oxohexan-2-yl)nicotinamide]	25.4 ± 2.8 µM	0.00983 s⁻¹	388 M⁻¹ s⁻¹	–	–	–
C=CC(=O)NCCCC[C@H](NC(=O)c1ccncc1)C(=O)N1CCN(C(=O)c2cccc3ccccc23)CC1 [Inhibitor 20, (S)-N-(1-(4-(1-naphthoyl)piperazin-1-yl)-6-acrylamido-1-oxohexan-2-yl)isonicotinamide]	19.3 ± 4.3 µM	0.004 s⁻¹	212 M⁻¹ s⁻¹	–	–	–
C=CC(=O)NCCCC[C@H](NC(=O)c1nccn1C)C(=O)N1CCN(C(=O)c2cccc3ccccc23)CC1 [Inhibitor 21, (S)-N-(1-(4-(1-naphthoyl)piperazin-1-yl)-6-acrylamido-1-oxohexan-2-yl)-1-methyl-1H-imidazole-2-carboxamide]	–	–	–	15.7 ± 4.5 µM	0.003 s⁻¹	192 M⁻¹ s⁻¹
C=CC(=O)NCCCC[C@H](NC(=O)c1cn(C)cn1)C(=O)N1CCN(C(=O)c2cccc3ccccc23)CC1 [Inhibitor 22, (S)-N-(1-(4-(1-naphthoyl)piperazin-1-yl)-6-acrylamido-1-oxohexan-2-yl)-1-methyl-1H-imidazole-4-carboxamide]	–	–	–	22.3 ± 5 µM	0.00467 s⁻¹	210 M⁻¹ s⁻¹
C=CC(=O)NCCCC[C@H](NC(=O)C1C2CC3CC(C2)CC1C3)C(=O)N1CCN(C(=O)c2cccc3ccccc23)CC1 (stereo partly drawn) [Inhibitor 33, (1S,3S,5S,7S)-N-((S)-1-(4-(1-naphthoyl)piperazin-1-yl)-6-acrylamido-1-oxohexan-2-yl)adamantane-2-carboxamide]	–	–	–	15.3 ± 0.3 µM	0.00383 s⁻¹	248 M⁻¹ s⁻¹
C=CC(=O)NCCCC[C@H](NC(=O)CC1CCCCC1)C(=O)N1CCN(C(=O)c2cccc3ccccc23)CC1 [Inhibitor 34, (S)-N-(6-(4-(1-naphthoyl)piperazin-1-yl)-5-(2-cyclohexylacetamido)-6-oxohexyl)acrylamide]	–	–	–	12.2 ± 2.4 µM	0.00433 s⁻¹	348 M⁻¹ s⁻¹
C=CC(=O)NCCCC[C@H](NC(=O)C1CCCCC1)C(=O)N1CCN(C(=O)c2cccc3ccccc23)CC1 [Inhibitor 35, (S)-N-(1-(4-(1-naphthoyl)piperazin-1-yl)-6-acrylamido-1-oxohexan-2-yl)cyclohexanecarboxamide]	–	–	–	9.9 ± 1.3 µM	0.0055 s⁻¹	560 M⁻¹ s⁻¹
C=CC(=O)NCCCC[C@H](NC(=O)C1CC1)C(=O)N1CCN(C(=O)c2cccc3ccccc23)CC1 [Inhibitor 36, (S)-N-(1-(4-(1-naphthoyl)piperazin-1-yl)-6-acrylamido-1-oxohexan-2-yl)cyclopropanecarboxamide]	–	–	–	10.6 ± 3.6 µM	0.017 s⁻¹	1610 M⁻¹ s⁻¹
C=CC(=O)NCCCC[C@H](NC(=O)C(C)(C)C)C(=O)N1CCN(C(=O)c2cccc3ccccc23)CC1 [Inhibitor 37, (S)-N-(6-(4-(1-naphthoyl)piperazin-1-yl)-6-oxo-5-pivalamidohexyl)acrylamide]	–	–	–	8.8 ± 3.6 µM	0.00817 s⁻¹	937 M⁻¹ s⁻¹
C=CC(=O)NCCCC[C@H](NC(=O)CC(C)C)C(=O)N1CCN(C(=O)c2cccc3ccccc23)CC1 [Inhibitor 38, (S)-N-(1-(4-(1-naphthoyl)piperazin-1-yl)-6-acrylamido-1-oxohexan-2-yl)-3-methylbutanamide]	–	–	–	9.7 ± 1.9 µM	0.0107 s⁻¹	1110 M⁻¹ s⁻¹
C=CC(=O)NCCCC[C@H](NC(=O)C(C)C)C(=O)N1CCN(C(=O)c2cccc3ccccc23)CC1 [Inhibitor 39, (S)-N-(6-(4-(1-naphthoyl)piperazin-1-yl)-5-isobutyramido-6-oxohexyl)acrylamide]	–	–	–	9.9 ± 1.4 µM	0.0108 s⁻¹	1080 M⁻¹ s⁻¹
